Read-outs that look alike come from different tables or passages of the source.
Assays:
C. elegans = C. elegans lifespan assays (liquid and plate); format: in vivo, Caenorhabditis elegans; settings: for ILS at 60 µM / ILS at 66 µM: Caenorhabditis elegans; for O = Life span- extending scores in worms: score scale 0 to 2, 4 to 6 independent trials; for M = Lifespan-extending scores in worms: summary score
FOXO3 = FOXO3 siRNA knockdown: dependency for H2O2-resistance; format: cell-based, human
Method: For qPCR analysis, WI-38 cells were treated with small molecules (at 10 μM) (biological quadruplicates) for 24 hrs and processed for RNA isolation and reverse transcription (RT) with the Cells-to-Ct Kit (Life Technologies), following manufacturer's instructions. RT products were diluted with H2O and used for qPCR analysis on an ABI 7300 system (Life Technologies) (technical triplicates). Relative expression levels of target genes were normalized to the genes B2M, PPIA and GAPDH. To knock down the expression of FOXO3 or NRF2, WI-38 cells were transfected, using the RNAiMAX reagents (Life Technologies), with siRNA oligos (at 10 nM final concentration, 10 ml culture medium) for FOXO3 (Life Technologies) or NRF2 (Integrated DNA Technologies) on 10-cm petri dishes for 36 hrs, and then detached and aliquoted onto 96-well (for qPCR analysis) or 384-well plates (for H2O2-stress treatment). ˜24 hrs later, small molecules were introduced and incubated with cells for 24 hrs. Cells were then either processed with the Cells-to-Ct Kit to prepare RT products for qPCR analysis or subjected to H2O2 (700 μM) for 3 hrs and assayed for viability. The knockdown efficiency of FOXO3 or NRF2 was checked at 36 hrs post-transfection and at the end as well. […]
Applicants used siRNA to knock down FOXO3 expression by ˜70% in an attempt to identify whether the activation of these genes depends on activity of FOXO3 and/or NRF2. […] We used siRNA to knock down FOXO3 expression by ˜60% to 70% (FIG. 3; see data in Table 6). […] (Given the caveat that FOXO3 was not fully knocked down, partial dependency was scored when the H2O2-resistance capacity was reduced by at least 25% but less than 50% upon siRNA knockdown). At least for Gr-7A and Gr-7C, which are structurally related, the observed FOXO3-dependency for H2O2-resistance is consistent with their strong effects to induce FOXO3 target genes (Tables 1a-1f, Table 6, & Table 15), including SOD2 and GADD45A.

[1] = in liquid, wild type, with FuDR, 1.0 × 10^9 bacteria/ml, read-out: relative change of mean lifespan vs control, Trial 1
[2] = in liquid, wild type, with FuDR, 2.5 × 10^9 bacteria/ml, read-out: relative change of mean lifespan vs control, Trial 2
[3] = on plate, CF512 temperature-sensitive sterile animals, without FuDR, 2.0 × 10^10 bacteria/ml, read-out: relative change of mean lifespan vs control, Trial 3
[4] = Assay 2(z), 1.0 × 10^9 bacteria/ml, wild type + FuDR (2012 July), read-out: Lifespan assay in liquid
[5] = Assay 3(aa), 2.5 × 10^9 bacteria/ml, wild type + FuDR, read-out: Lifespan assay in liquid
[6] = Assay 4(ab), 2.0 × 10^10 bacteria/ml, CF512 worms, no FuDR, read-out: Lifespan assay on plates
[7] = on plate, CF512 temperature-sensitive sterile animals, without FuDR, 1.0 × 10^11 bacteria/ml, read-out: relative change of mean lifespan vs control, Trial 4
[8] = Assay 5(ac), 1.0 × 10^11 bacteria/ml, CF512 worms, no FuDR, read-out: Lifespan assay on plates

COc1ccc(C(=O)/C=C/c2cccc(Cl)c2)c(OC)c1 [Gr-4C]
ILS at 60 µM (C. elegans; [1]): -14.9% | ILS at 60 µM (C. elegans; [2]): 3.1% | ILS at 60 µM (C. elegans; [3]): -1.7% | ILS at 66 µM (C. elegans; [4]): -14.9% | ILS at 66 µM (C. elegans; [5]): 3.1% | ILS at 66 µM (C. elegans; [6]): -1.7% | O = Life span- extending scores in worms (C. elegans): 0 | M = Lifespan-extending scores in worms (C. elegans): 0 | I = FOXO3-dependency for H2O2-resistance (FOXO3; score): 0 | I = FOXO3-dependency for H2O2-resistance (FOXO3; summary score): 0

CCc1ccc(Oc2nc3ccccn3c(=O)c2/C=C(\C#N)C(=O)NCc2ccco2)cc1 [Gr-5B]
ILS at 60 µM (C. elegans; [1]): 37.2% | ILS at 60 µM (C. elegans; [2]): 2% | ILS at 60 µM (C. elegans; [3]): 1.7% | ILS at 66 µM (C. elegans; [4]): 37.2% | ILS at 66 µM (C. elegans; [5]): 2% | ILS at 66 µM (C. elegans; [6]): 1.7% | O = Life span- extending scores in worms (C. elegans): 0 | M = Lifespan-extending scores in worms (C. elegans): 0 | I = FOXO3-dependency for H2O2-resistance (FOXO3; score): 0 | I = FOXO3-dependency for H2O2-resistance (FOXO3; summary score): 0

CNC(=O)/C(C#N)=C/c1c(Oc2ccc(C(C)(C)C)cc2)nc2ccccn2c1=O [Gr-5D]
ILS at 60 µM (C. elegans; [1]): 29.5% | ILS at 60 µM (C. elegans; [2]): 5.8% | ILS at 60 µM (C. elegans; [3]): -5.3% | ILS at 66 µM (C. elegans; [4]): 29.5% | ILS at 66 µM (C. elegans; [5]): 5.8% | ILS at 66 µM (C. elegans; [6]): -5.3% | O = Life span- extending scores in worms (C. elegans): 0 | M = Lifespan-extending scores in worms (C. elegans): 0 | I = FOXO3-dependency for H2O2-resistance (FOXO3; score): 0 | I = FOXO3-dependency for H2O2-resistance (FOXO3; summary score): 0

O=C(/C=C/c1cn(-c2ccccc2)nc1-c1cccnc1)c1ccccc1 [Gr-6B]
ILS at 60 µM (C. elegans; [1]): 3% | ILS at 60 µM (C. elegans; [2]): 0.2% | ILS at 60 µM (C. elegans; [7]): -1.3% | ILS at 60 µM (C. elegans; [3]): 20.6% | ILS at 66 µM (C. elegans; [4]): 3% | ILS at 66 µM (C. elegans; [5]): 0.2% | ILS at 66 µM (C. elegans; [6]): 20.6% | ILS at 66 µM (C. elegans; [8]): -1.3% | O = Life span- extending scores in worms (C. elegans): 0 | M = Lifespan-extending scores in worms (C. elegans): 0 | I = FOXO3-dependency for H2O2-resistance (FOXO3; score): 0 | I = FOXO3-dependency for H2O2-resistance (FOXO3; summary score): 0

N=C1S/C(=C\c2cn(-c3ccccc3)nc2-c2cccs2)C(=O)N1c1nccs1 [Gr-6C]
ILS at 60 µM (C. elegans; [1]): 20.5% | ILS at 60 µM (C. elegans; [2]): 12.4% | ILS at 60 µM (C. elegans; [3]): 9.4% | ILS at 66 µM (C. elegans; [4]): 20.5% | ILS at 66 µM (C. elegans; [5]): 12.4% | ILS at 66 µM (C. elegans; [6]): 9.4% | Extension of C. elegans' lifespan (qualitative) (C. elegans; in at least 3 to 4 trials, group range ~10% to ~50%): could extend animal's lifespan | Trials with lifespan extension (C. elegans; positive of total trials): 3 of 3 | O = Life span- extending scores in worms (C. elegans): 2 (2 for observed in more than 2 trials) | M = Lifespan-extending scores in worms (C. elegans): 2 (2 for observed in more than 2 trials) | I = FOXO3-dependency for H2O2-resistance (FOXO3; score): 0 | I = FOXO3-dependency for H2O2-resistance (FOXO3; summary score): 0

O=C1NCCCc2cc(Cl)sc21 [O1]
ILS at 60 µM (C. elegans; [1]): 1.8% | ILS at 60 µM (C. elegans; [2]): -1.7% | ILS at 60 µM (C. elegans; [7]): -2.2% | ILS at 60 µM (C. elegans; [3]): 22.1% | ILS at 66 µM (C. elegans; [4]): 1.8% | ILS at 66 µM (C. elegans; [5]): -1.7% | ILS at 66 µM (C. elegans; [6]): 22.1% | ILS at 66 µM (C. elegans; [8]): -2.2% | O = Life span- extending scores in worms (C. elegans): 0 | M = Lifespan-extending scores in worms (C. elegans): 0 | I = FOXO3-dependency for H2O2-resistance (FOXO3; score): 0 | I = FOXO3-dependency for H2O2-resistance (FOXO3; summary score): 0

O=C(Nc1nc(C23CC4CC(CC(C4)C2)C3)cs1)C(c1ccccc1)c1ccccc1 [O10]
ILS at 60 µM (C. elegans; [1]): 5.9% | ILS at 60 µM (C. elegans; [2]): -6.2% | ILS at 60 µM (C. elegans; [3]): 9.5% | ILS at 66 µM (C. elegans; [4]): 5.9% | ILS at 66 µM (C. elegans; [5]): -6.2% | ILS at 66 µM (C. elegans; [6]): 9.5% | O = Life span- extending scores in worms (C. elegans): 0 | M = Lifespan-extending scores in worms (C. elegans): 0 | I = FOXO3-dependency for H2O2-resistance (FOXO3; score): 0 | I = FOXO3-dependency for H2O2-resistance (FOXO3; summary score): 0

COC(=O)CCc1sc2c(c1[N+](=O)[O-])NC(=O)CCC2 [O20]
ILS at 60 µM (C. elegans; [1]): 18.8% | ILS at 60 µM (C. elegans; [2]): 3.4% | ILS at 60 µM (C. elegans; [3]): 11.3% | ILS at 66 µM (C. elegans; [4]): 18.8% | ILS at 66 µM (C. elegans; [5]): 3.4% | ILS at 66 µM (C. elegans; [6]): 11.3% | O = Life span- extending scores in worms (C. elegans): 1 (1 for lifespan extension observed in 2 trials) | M = Lifespan-extending scores in worms (C. elegans): 1 (1 for lifespan extension observed in 2 trials) | FOXO3-dependency for H2O2-resistance, at 10 uM - with H2O2, 2nd experiment (FOXO3; 10 uM, experiment 2 (2nd), with H2O2): 2nd, YES. | FOXO3-dependency for H2O2-resistance, at 10 uM (experiment 3) - with & without H2O2 (FOXO3; 10 uM, experiment 3, with & without H2O2): YES | FOXO3-dependency for H2O2-resistance (experiment 3) (FOXO3; 10 uM, with & without H2O2, FOXO3 knockdown in WI-38 cells, YES = resistance reduced by at least 50%, partial = 25% to 50%): YES | FOXO3-dependency for H2O2-resistance, 2nd experiment (FOXO3; 10 uM, with H2O2, FOXO3 knockdown in WI-38 cells, YES = resistance reduced by at least 50%, partial = 25% to 50%): YES. | Assay 16: FOXO3-dependency for H2O2-resistance (FOXO3; 10 uM, YES/NO): YES | Requirement of FOXO3 to promote H2O2-resistance (FOXO3; FOXO3 siRNA, at least 2 of 3 independent experiments): required FOXO3 | I = FOXO3-dependency for H2O2-resistance (FOXO3; score): 1 | I = FOXO3-dependency for H2O2-resistance (FOXO3; summary score): 1

Reference: patent US11413278B2, “Compounds and methods for promoting stress resistance” (priority 2015, dated 2022)
